# Results as given in patent US12043632B2, “6-heteroaryloxy benzimidazoles and azabenzimidazoles as JAK2 inhibitors” (Ajax Therapeutics, Inc., priority 2020, dated 2024).
# Molecular target: T1, JAK2 (JH1domain-catalytic, Y1007F,Y1008F) kinase (Homo sapiens, UniProt O60674, Y1007F/Y1008F)
# T1 construct: JAK2 (JH1domain-catalytic, Y1007F,Y1008F) kinase was expressed as N-terminal fusion; made in house; host or cells: transiently transfected HEK293 cells
# Experiment: JAK2 JH1 Domain Binding Assay
# Settings: qPCR readout
# T1 sequence (O60674 849-1124 Y1007F/Y1008F limits assumed): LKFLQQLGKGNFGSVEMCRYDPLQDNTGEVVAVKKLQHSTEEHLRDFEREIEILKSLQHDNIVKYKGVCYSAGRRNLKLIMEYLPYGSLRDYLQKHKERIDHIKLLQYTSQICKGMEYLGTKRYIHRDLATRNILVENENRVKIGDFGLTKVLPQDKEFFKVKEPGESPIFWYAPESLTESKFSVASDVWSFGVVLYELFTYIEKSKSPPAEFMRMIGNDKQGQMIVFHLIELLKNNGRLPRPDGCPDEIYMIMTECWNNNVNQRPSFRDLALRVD
row,Compound,Kd [nM]
1,"CNc1cn2ncc(Oc3cnc4nc(Nc5cc(C(C)(C)C)n([C@@H]6CCN(C)C6)n5)n(C)c4c3Cl)c2cn1 [Example I-347, (R)—N-(5-(tert-butyl)-1-(1-methylpyrrolidin-3-yl)-1H-pyrazol-3-yl)-7-chloro-1-methyl-6-((6-(methylamino)pyrazolo[1,5-a]pyrazin-3-yl)oxy)-1H-imidazo[4,5-b]pyridin-2-amine]",50 to 1000
2,"CNc1cn2ncc(Oc3cnc4nc(Nc5cc(C(=O)N(C)C)c(F)c(C(F)(F)F)c5)n(C)c4c3Cl)c2cn1 [Example I-348, 5-((7-chloro-1-methyl-6-((6-(methylamino)pyrazolo[1,5-a]pyrazin-3-yl)oxy)-1H-imidazo[4,5-b]pyridin-2-yl)amino)-2-fluoro-N,N-dimethyl-3-(trifluoromethyl)benzamide]",10 to 50
3,"CNc1cn2ncc(Oc3cnc4nc(Nc5cc(N6CCN(C)CC6)cc(C(F)(F)F)c5)n(C)c4c3Cl)c2cn1 [Example I-351, 7-chloro-1-methyl-6-((6-(methylamino)pyrazolo[1,5-a]pyrazin-3-yl)oxy)-N-(3-(4-methylpiperazin-1-yl)-5-(trifluoromethyl)phenyl)-1H-imidazo[4,5-b]pyridin-2-amine]",10 to 50
4,"CNc1cn2ncc(Oc3cnc4nc(Nc5cc(CN6CC7(COC7)C6)cc(C(F)(F)F)c5)n(C)c4c3Cl)c2cn1 [Example I-356, N-(3-((2-oxa-6-azaspiro[3.3]heptan-6-yl)methyl)-5-(trifluoromethyl)phenyl)-7-chloro-1-methyl-6-((6-(methylamino)pyrazolo[1,5-a]pyrazin-3-yl)oxy)-1H-imidazo[4,5-b]pyridin-2-amine]",10 to 50
5,"CNc1cn2ncc(Oc3cnc4nc(Nc5cc(CN6CCC6)cc(C(F)(F)F)c5)n(C)c4c3Cl)c2cn1 [Example I-357, N-(3-(azetidin-1-ylmethyl)-5-(trifluoromethyl)phenyl)-7-chloro-1-methyl-6-((6-(methylamino)pyrazolo[1,5-a]pyrazin-3-yl)oxy)-1H-imidazo[4,5-b]pyridin-2-amine]",50 to 1000
6,"CNc1cn2ncc(Oc3cnc4nc(Nc5cc(CN6CC(F)C6)cc(C(F)(F)F)c5)n(C)c4c3Cl)c2cn1 [Example I-358, 7-chloro-N-(3-((3-fluoroazetidin-1-yl)methyl)-5-(trifluoromethyl)phenyl)-1-methyl-6-((6-(methylamino)pyrazolo[1,5-a]pyrazin-3-yl)oxy)-1H-imidazo[4,5-b]pyridin-2-amine]",50 to 1000
7,"CNc1cn2ncc(Oc3cnc4nc(Nc5ccc(CN6CC[C@H](OC)C6)c(C(F)(F)F)c5)n(C)c4c3Cl)c2cn1 [Example I-360, (S)-7-chloro-N-(4-((3-methoxypyrrolidin-1-yl)methyl)-3-(trifluoromethyl)phenyl)-1-methyl-6-((6-(methylamino)pyrazolo[1,5-a]pyrazin-3-yl)oxy)-1H-imidazo[4,5-b]pyridin-2-amine]",50 to 1000
8,"CNc1cn2ncc(Oc3cnc4nc(Nc5ccc(CN6CC[C@@H](OC)C6)c(C(F)(F)F)c5)n(C)c4c3Cl)c2cn1 [Example I-361, (R)-7-chloro-N-(4-((3-methoxypyrrolidin-1-yl)methyl)-3-(trifluoromethyl)phenyl)-1-methyl-6-((6-(methylamino)pyrazolo[1,5-a]pyrazin-3-yl)oxy)-1H-imidazo[4,5-b]pyridin-2-amine]",50 to 1000
9,"Cn1c(Nc2cc3n(n2)CCCC3(F)F)nc2ncc(Oc3cnn4ccncc34)c(C#N)c21 [Example I-362, 2-((4,4-difluoro-4,5,6,7-tetrahydropyrazolo[1,5-a]pyridin-2-yl)amino)-1-methyl-6-(pyrazolo[1,5-a]pyrazin-3-yloxy)-1H-imidazo[4,5-b]pyridine-7-carbonitrile]",10 to 50
10,"COc1cn2ncc(Oc3cnc4nc(Nc5cc(C(F)(F)F)cn(C)c5=O)n(C)c4c3Cl)c2cn1 [Example I-363, 3-((7-chloro-6-((6-methoxypyrazolo[1,5-a]pyrazin-3-yl)oxy)-1-methyl-1H-imidazo[4,5-b]pyridin-2-yl)amino)-1-methyl-5-(trifluoromethyl)pyridin-2(1H)-one]",10 to 50
11,"COc1cn2ncc(Oc3cnc4nc(Nc5cc(C(F)(F)F)cn(C)c5=O)n(C)c4c3C#N)c2cn1 [Example I-364, 6-((6-methoxypyrazolo[1,5-a]pyrazin-3-yl)oxy)-1-methyl-2-((1-methyl-2-oxo-5-(trifluoromethyl)-1,2-dihydropyridin-3-yl)amino)-1H-imidazo[4,5-b]pyridine-7-carbonitrile]",10 to 50
12,"Cn1c(Nc2cc3n(n2)CCCC3(F)F)nc2ncc(Oc3cnc4[nH]ncc4c3)c(C#N)c21 [Example I-370, 6-((1H-pyrazolo[3,4-b]pyridin-5-yl)oxy)-2-((4,4-difluoro-4,5,6,7-tetrahydropyrazolo[1,5-a]pyridin-2-yl)amino)-1-methyl-1H-imidazo[4,5-b]pyridine-7-carbonitrile]",< 10
13,"CNc1nccn2ncc(Oc3cnc4nc(Nc5cc6n(n5)CCCC6(F)F)n(C)c4c3C#N)c12 [Example I-373, 2-((4,4-difluoro-4,5,6,7-tetrahydropyrazolo[1,5-a]pyridin-2-yl)amino)-1-methyl-6-((4-(methylamino)pyrazolo[1,5-a]pyrazin-3-yl)oxy)-1H-imidazo[4,5-b]pyridine-7-carbonitrile]",< 10
14,"COc1ccc2c(Oc3cnc4nc(Nc5cc6n(n5)CCCC6(F)F)n(C)c4c3C#N)cnn2c1 [Example I-374, 2-((4,4-difluoro-4,5,6,7-tetrahydropyrazolo[1,5-a]pyridin-2-yl)amino)-6-((6-methoxypyrazolo[1,5-a]pyridin-3-yl)oxy)-1-methyl-1H-imidazo[4,5-b]pyridine-7-carbonitrile]",< 10
15,"COCCOc1cn2ncc(Oc3cnc4nc(Nc5cc(C6CC6)cn(C)c5=O)n(C)c4c3Cl)c2cn1 [Example I-375, 3-((7-chloro-6-((6-(2-methoxyethoxy)pyrazolo[1,5-a]pyrazin-3-yl)oxy)-1-methyl-1H-imidazo[4,5-b]pyridin-2-yl)amino)-5-cyclopropyl-1-methylpyridin-2(1H)-one]",< 10
16,"Cn1cc(C(F)(F)F)cc(Nc2nc3ncc(Oc4cnn5cc(OCCN6CCOCC6)ncc45)c(Cl)c3n2C)c1=O [Example I-376, 3-((7-chloro-1-methyl-6-((6-(2-morpholinoethoxy)pyrazolo[1,5-a]pyrazin-3-yl)oxy)-1H-imidazo[4,5-b]pyridin-2-yl)amino)-1-methyl-5-(trifluoromethyl)pyridin-2(1H)-one]",< 10

# Further lines, results first:
row,Kd [nM],Compound
1,< 10,"COc1c[nH]c2ncc(Oc3cnc4nc(Nc5cc(C(F)(F)F)cn(C)c5=O)n(C)c4c3C#N)cc12 [Example I-349, 6-((3-methoxy-1H-pyrrolo[2,3-b]pyridin-5-yl)oxy)-1-methyl-2-((1-methyl-2-oxo-5-(trifluoromethyl)-1,2-dihydropyridin-3-yl)amino)-1H-imidazo[4,5-b]pyridine-7-carbonitrile]"
2,< 10,"CNc1cn2ncc(Oc3cnc4nc(Nc5cc(C6CCN(C)CC6)cc(C(F)(F)F)c5)n(C)c4c3Cl)c2cn1 [Example I-353, 7-chloro-1-methyl-6-((6-(methylamino)pyrazolo[1,5-a]pyrazin-3-yl)oxy)-N-(3-(1-methylpiperidin-4-yl)-5-(trifluoromethyl)phenyl)-1H-imidazo[4,5-b]pyridin-2-amine]"
3,< 10,"CNc1cc(F)c2c(Oc3cnc4nc(Nc5cc(C(F)(F)F)cn(C)c5=O)n(C)c4c3Cl)cnn2c1 [Example I-354, 3-((7-chloro-6-((4-fluoro-6-(methylamino)pyrazolo[1,5-a]pyridin-3-yl)oxy)-1-methyl-1H-imidazo[4,5-b]pyridin-2-yl)amino)-1-methyl-5-(trifluoromethyl)pyridin-2(1H)-one]"
4,< 10,"COCCOc1ccc2c(Oc3cnc4nc(Nc5cc(C(F)(F)F)cn(C)c5=O)n(C)c4c3Cl)cnn2c1 [Example I-355, 3-((7-chloro-6-((6-(2-methoxyethoxy)pyrazolo[1,5-a]pyridin-3-yl)oxy)-1-methyl-1H-imidazo[4,5-b]pyridin-2-yl)amino)-1-methyl-5-(trifluoromethyl)pyridin-2(1H)-one]"
5,< 10,"COCCOc1cn2ncc(Oc3cnc4nc(Nc5cc(C(F)(F)F)cn(C)c5=O)n(C)c4c3Cl)c2cn1 [Example I-365, 3-((7-chloro-6-((6-(2-methoxyethoxy)pyrazolo[1,5-a]pyrazin-3-yl)oxy)-1-methyl-1H-imidazo[4,5-b]pyridin-2-yl)amino)-1-methyl-5-(trifluoromethyl)pyridin-2(1H)-one]"
6,< 10,"Cn1c(Nc2cc3n(n2)CCCC3(F)F)nc2ncc(Oc3cnn4ccccc34)c(C#N)c21 [Example I-366, 2-((4,4-difluoro-4,5,6,7-tetrahydropyrazolo[1,5-a]pyridin-2-yl)amino)-1-methyl-6-(pyrazolo[1,5-a]pyridin-3-yloxy)-1H-imidazo[4,5-b]pyridine-7-carbonitrile]"
7,< 10,"COCCOc1cn2ncc(Oc3cnc4nc(Nc5cc(C(F)(F)F)cn(C)c5=O)n(C)c4c3C#N)c2cn1 [Example I-367, 6-((6-(2-methoxyethoxy)pyrazolo[1,5-a]pyrazin-3-yl)oxy)-1-methyl-2-((1-methyl-2-oxo-5-(trifluoromethyl)-1,2-dihydropyridin-3-yl)amino)-1H-imidazo[4,5-b]pyridine-7-carbonitrile]"
8,< 10,"CN(C)c1n[nH]c2ncc(Oc3cnc4nc(Nc5cc(C(F)(F)F)cn(C)c5=O)n(C)c4c3C#N)cc12 [Example I-368, 6-((3-(dimethylamino)-1H-pyrazolo[3,4-b]pyridin-5-yl)oxy)-1-methyl-2-((1-methyl-2-oxo-5-(trifluoromethyl)-1,2-dihydropyridin-3-yl)amino)-1H-imidazo[4,5-b]pyridine-7-carbonitrile]"
9,< 10,"COCCOc1ccc2c(Oc3cnc4nc(Nc5cc6n(n5)CCCC6(F)F)n(C)c4c3C#N)cnn2c1 [Example I-369, 2-((4,4-difluoro-4,5,6,7-tetrahydropyrazolo[1,5-a]pyridin-2-yl)amino)-6-((6-(2-methoxyethoxy)pyrazolo[1,5-a]pyridin-3-yl)oxy)-1-methyl-1H-imidazo[4,5-b]pyridine-7-carbonitrile]"
